This experiment addresses T1, LOXL1 (Homo sapiens, UniProt Q08397).
T1 sequence (Q08397 96-574): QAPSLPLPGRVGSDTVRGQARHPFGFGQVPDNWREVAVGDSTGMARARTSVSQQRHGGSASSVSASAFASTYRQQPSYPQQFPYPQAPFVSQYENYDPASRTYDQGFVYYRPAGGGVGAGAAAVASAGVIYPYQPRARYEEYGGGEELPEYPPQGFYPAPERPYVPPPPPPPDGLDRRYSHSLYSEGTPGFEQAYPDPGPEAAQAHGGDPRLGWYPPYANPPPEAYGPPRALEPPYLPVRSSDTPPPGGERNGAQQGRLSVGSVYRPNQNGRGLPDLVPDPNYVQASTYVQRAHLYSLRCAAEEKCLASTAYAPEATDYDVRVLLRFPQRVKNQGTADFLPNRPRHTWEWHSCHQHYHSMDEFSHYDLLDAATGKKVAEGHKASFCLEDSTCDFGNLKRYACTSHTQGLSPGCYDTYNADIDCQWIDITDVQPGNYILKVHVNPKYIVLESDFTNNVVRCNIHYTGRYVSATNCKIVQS
Briefly: Time-dependent inhibition of LOXL1, Amplex Red oxidation assay. The experiment is classed as biochemical. Conditions: for IC50: 37 °C. As to the method: The time dependent inhibitory effects of the Compound 1 of the present invention were tested against the given LOXL1 preparation and LOXL2 preparation using a method based on the detection of hydrogen peroxide with an Amplex Red oxidation assay [Zhou et al. 1997]. The assay was developed for use in either 384 or 96 well format. Briefly, in a standard black, clear bottom 384 well plate assay 25 µL of a dilution of any of the isoenzymes and orthologues in 1.2 M urea, 50 mM sodium borate buffer (pH 8.2) were added into each well in the presence of […] and 0.5 mM pargyline (to inhibit SSAO and MAO-B and MAO-A, respectively; not necessary if the enzyme is from a recombinant or purified form). Test compound (Compound 1) was dissolved in DMSO and tested in a Concentration Response Curve (CRC) with 11 data points, typically in the micromolar or nanomolar range after incubation with the enzyme for different time points at 37 °C. 25 μL of a reaction mixture containing twice the KM concentration of putrescine (Sigma Aldrich, e.g. 20 mM for LOXL1 or 10 mM for LOXL2), 120 µM Amplex Red (Thermo Fisher Scientific) and 1.5 U/mL horseradish peroxidase (Sigma Aldrich) prepared in 1.2 M urea, 50 mM sodium borate buffer (pH 8.2) were then added to the corresponding wells. The fluorescence (RFU) was read every 2.5 min for 30 min at 37 °C, excitation 544 nm and emission 590 nm (Optima; BMG labtech). The slope/min of the kinetics for each well was calculated using MARS data analysis software (BMG labtech) and this value was used to deduce the IC50 value (Dotmatics).

Usually IC50 stands for the concentration at which inhibition is half-maximal.

On to `NC/C(=C\F)CS(=O)(=O)c1ccccc1` [Compound 1, (E)-3-fluoro-2-((phenylsulfonyl)methyl)prop-2-en-1-amine], for which the concentration for half-maximal inhibition (IC50) was 9470 nM (30′ incubation), 1700 nM (2 h incubation) and 920 nM (4 h incubation). For the same compound, where the note is “apparent potency increasing with time”, the “Time dependent LOXL1 inhibition” value is “time dependent LOXL1 and LOXL2 inhibition”.

Source of the values: US20260364030A1, “NOVEL SELECTIVE INHIBITORS OF LYSYL OXIDASES” (Syntara Limited, priority 2022, published 2026).
